Assay results reported in paper PMC12302228 (RSC Medicinal Chemistry, 2025).
≈ marks a conversion by molar mass, not a printed value. Where two headings read alike, the source gives them in different places.

Key:
MCF7 = assay: Antiproliferative activity, SRB assay; format: cell-based, human; conditions: mean ± SEM
M21 = assay: Antiproliferative activity, SRB assay; format: cell-based, human; conditions: mean ± SEM
HT-29 = assay: Antiproliferative activity, SRB assay; format: cell-based, human; conditions: mean ± SEM
HT-1080 = assay: Antiproliferative activity, SRB assay; format: cell-based, human; conditions: read-out: IC50 HT-1080; 48 h of treatment; mean ± SEM
MOLM-13 = assay: Antiproliferative activity, MTT assay; format: cell-based, human; conditions: read-out: IC50 MOLM-13; 48 h of treatment; mean ± SEM
THP-1 = assay: Antiproliferative activity, MTT assay; format: cell-based, human; conditions: mean ± SEM
HL-60 = assay: Antiproliferative activity, MTT assay; format: cell-based, human; conditions: mean ± SEM
physchem = conditions: ultrapure water, 37 °C, kinetic from dmso stock
[1] = read-out: IC50 MCF7, 48 h of treatment
[2] = read-out: IC50 M21, 48 h of treatment
[3] = read-out: IC50 HT-29, 48 h of treatment
[4] = read-out: IC50 THP-1, 48 h of treatment
[5] = read-out: IC50 HL-60, 48 h of treatment
[6] = Homo sapiens, MCF7, 48 h, read-out: IC50 MCF7, 48 h of treatment
[7] = Homo sapiens, M21, 48 h, read-out: IC50 M21, 48 h of treatment
[8] = Homo sapiens, HT-29, 48 h, read-out: IC50 HT-29, 48 h of treatment
[9] = Homo sapiens, THP-1, 48 h, read-out: IC50 THP-1, 48 h of treatment
[10] = Homo sapiens, HL-60, 48 h, read-out: IC50 HL-60, 48 h of treatment

SMILES	IC50 (MCF7; [1]) [µM]	IC50 (M21; [2]) [µM]	IC50 (HT-29; [3]) [µM]	IC50 (HT-1080) [µM]	IC50 (MOLM-13) [µM]	IC50 (THP-1; [4]) [µM]	IC50 (HL-60; [5]) [µM]	solubility at 24 h (physchem) [µg/mL]	IC50 (MCF7; [6]) [µM]	IC50 (M21; [7]) [µM]	IC50 (HT-29; [8]) [µM]	IC50 (THP-1; [9]) [µM]	IC50 (HL-60; [10]) [µM]
CCNC(=O)Nc1ccc(S(=O)(=O)Oc2cccnc2C)cc1 [Compound 4, 2-Methylpyridin-3-yl 4-(3-ethylureido)benzenesulfonate]	20 ± 3	79 ± 4	56 ± 3	10.2 ± 0.8	6 ± 2	4.4 ± 0.2	50 ± 10	55 ± 1 (≈ 164 µM)					
CCCNC(=O)Nc1ccc(S(=O)(=O)Oc2cnccc2Br)cc1.Cl [Compound 33, 4-Bromopyridin-3-yl 4-(3-propylureido)benzenesulfonate hydrochloride]	24 ± 2	40 ± 1	30 ± 1	10 ± 0.8	6 ± 1	4.1 ± 0.7	40 ± 10	124 ± 2					
CCNC(=O)Nc1ccc(S(=O)(=O)Oc2cnccc2C)cc1.Cl [Compound 32, 4-Methylpyridin-3-yl 4-(3-ethylureido)benzenesulfonate hydrochloride]	26 ± 2	35 ± 4	9.6 ± 0.7	5.9 ± 0.7	2.4 ± 0.3	2.9 ± 0.1	> 100	98 ± 7					
CCNC(=O)Nc1ccc(S(=O)(=O)Oc2cnccc2I)cc1 [Compound 13, 4-Iodopyridin-3-yl 4-(3-ethylureido)benzenesulfonate]								63 ± 1 (≈ 141 µM)	15 ± 2	9 ± 1	12 ± 1	1.8 ± 0.5	25 ± 7
CCCNC(=O)Nc1ccc(S(=O)(=O)Oc2cccnc2C(C)C)cc1 [Compound 7, 2-Isopropylpyridin-3-yl 4-(3-propylureido)benzenesulfonate]							24 ± 4	7 ± 1 (≈ 18.5 µM)	17 ± 1	22 ± 2	14 ± 1	2.6 ± 0.6	
CCCNC(=O)Nc1ccc(S(=O)(=O)Oc2cccnc2C)cc1.Cl [Compound 26, 2-Methylpyridin-3-yl 4-(3-propylureido)benzenesulfonate hydrochloride]	33 ± 4	> 100	> 100	15 ± 2	14 ± 2	6 ± 2	15 ± 3	151 ± 1					
CCNC(=O)Nc1ccc(S(=O)(=O)Oc2cnccc2Br)cc1.Cl [Compound 30, 4-Bromopyridin-3-yl 4-(3-ethylureido)benzenesulfonate hydrochloride]	45 ± 4	44 ± 3	45 ± 4	6.7 ± 0.4	3.7 ± 0.5	6 ± 2	80 ± 5	122 ± 4					
CCCNC(=O)Nc1ccc(S(=O)(=O)Oc2cnccc2I)cc1 [Compound 16, 4-Iodopyridin-3-yl 4-(3-propylureido)benzenesulfonate]	5 ± 1	9.7 ± 0.9	6.9 ± 0.5		1.3 ± 0.3		18 ± 4	53 ± 6 (≈ 115 µM)				1.5 ± 0.4	
O=C(NCCCl)Nc1ccc(S(=O)(=O)Oc2cccnc2Br)cc1 [Compound 9, 2-Bromopyridin-3-yl 4-(3-(2-chloroethyl)ureido)benzenesulfonate]						1.2 ± 0.5	12 ± 1	56 ± 2 (≈ 129 µM)	16 ± 1	23 ± 1	17 ± 1		
O=C(NCCCl)Nc1ccc(S(=O)(=O)Oc2cnccc2I)cc1 [Compound 18, 4-Iodopyridin-3-yl 4-(3-(2-chloroethyl)ureido)benzenesulfonate]								24 ± 2 (≈ 49.8 µM)	2.8 ± 0.4	2.8 ± 0.3	2.7 ± 0.2	1.2 ± 0.3	3 ± 1
CCNC(=O)Nc1ccc(S(=O)(=O)Oc2cccnc2C)cc1.Cl [Compound 22, 2-Methylpyridin-3-yl 4-(3-ethylureido)benzenesulfonate hydrochloride]	51 ± 5			26 ± 2				152 ± 4		> 100	> 100	5 ± 2	60 ± 20
CCCNC(=O)Nc1ccc(S(=O)(=O)Oc2cnccc2Br)cc1 [Compound 15, 4-Bromopyridin-3-yl 4-(3-propylureido)benzenesulfonate]				4.1 ± 0.3				35 ± 3 (≈ 84.5 µM)	12 ± 1	28 ± 2	19 ± 1	6 ± 1	21 ± 5
CCNC(=O)Nc1ccc(S(=O)(=O)Oc2cccnc2Br)cc1.Cl [Compound 19, 2-Bromopyridin-3-yl 4-(3-ethylureido)benzenesulfonate hydrochloride]		27 ± 2	26 ± 2				> 100	173 ± 2	28 ± 2			7 ± 3	
CCCNC(=O)Nc1ccc(S(=O)(=O)Oc2cccnc2I)cc1.Cl [Compound 24, 2-Iodopyridin-3-yl 4-(3-propylureido)benzenesulfonate hydrochloride]								120 ± 10	22 ± 2	29 ± 2	28 ± 2	3.9 ± 0.7	30 ± 10
CCNC(=O)Nc1ccc(S(=O)(=O)Oc2cnccc2Br)cc1 [Compound 12, 4-Bromopyridin-3-yl 4-(3-ethylureido)benzenesulfonate]		21 ± 1						64 ± 1 (≈ 160 µM)	32 ± 4		25 ± 1	4 ± 0.6	> 50
CCCNC(=O)Nc1ccc(S(=O)(=O)Oc2cccnc2C)cc1 [Compound 8, 2-Methylpyridin-3-yl 4-(3-propylureido)benzenesulfonate]				5.1 ± 0.5			35 ± 7	44 ± 1 (≈ 126 µM)	19 ± 2	69 ± 3	70 ± 8	3.5 ± 0.9	
CC(C)c1ncccc1OS(=O)(=O)c1ccc(NC(=O)NCCCl)cc1 [Compound 11, 2-Isopropylpyridin-3-yl 4-(3-(2-chloroethyl)ureido)benzenesulfonate]		20 ± 1					27 ± 6	41 ± 3 (≈ 103 µM)	17 ± 1		14 ± 1	2.3 ± 0.9	
O=C(NCCCl)Nc1ccc(S(=O)(=O)Oc2cccnc2I)cc1 [Compound 10, 2-Iodopyridin-3-yl 4-(3-(2-chloroethyl)ureido)benzenesulfonate]	5 ± 1		9 ± 1				6.9 ± 0.3	4.4 ± 0.1 (≈ 9.13 µM)		9 ± 1		1 ± 0.1	
CCNC(=O)Nc1ccc(S(=O)(=O)Oc2cnccc2C)cc1 [Compound 14, 4-Methylpyridin-3-yl 4-(3-ethylureido)benzenesulfonate]						6 ± 2		49 ± 4 (≈ 146 µM)	31 ± 3	31 ± 3	16 ± 1		> 100
CCCNC(=O)Nc1ccc(S(=O)(=O)Oc2cccnc2Br)cc1.Cl [Compound 23, 2-Bromopyridin-3-yl 4-(3-propylureido)benzenesulfonate hydrochloride]			42 ± 2					79 ± 9	22 ± 2	45 ± 2		10 ± 0.3	37 ± 7
